In patent US20080269310A1, “Synergistic Combinations” (priority 2005, published 2008):
Where two headings read alike, the source gives them in different places.

Columns and labels:
[1] = test system: carrageenan-induced thermal hyperalgesia; test: rat carrageenan footpad thermal hyperalgesia assay (Hargreaves test); format: in vivo; conditions: gabapentin 10-100 mg/kg SC, carprofen 1-10 mg/kg SC, combination in fixed 10:1 ratio
Experimental: The aim of this experiment was to characterize the anti-nociceptive and anti-inflammatory effects of gabapentin administered in combination with carprofen in the rat. In this example, gabapentin, carprofen, and the combination of gabapentin and carprofen were evaluated in a standard rat carrageenan footpad thermal hyperalgesia assay. This assay utilizes an extract of seaweed (carrageenan) that, when injected into the footpad of test animals, causes a sterile inflammation, thereby lowering the pain threshold. […]
Each data point represents the mean and standard error of mean. […] The theoretical dose-additive line for a 10:1 dose ratio was determined (dotted line) as described (Tallarida, 1992). The experimental determination of a 10:1 dose ratio was determined (gabapentin-carprofen mixture 10:1) and a shift to the left of the theoretical dose-additive line was found. […]
Dose-effect curves were first determined for (1) gabapentin by itself and (2) carprofen by itself. The ED50 value of each agent was determined, as was the time to peak effect. […]
Carrageenan-induced thermal hyperalgesia: Rats were acclimated to a testing chamber whose glass floor was maintained at 25° C. One hour later, a high intensity beam of light was focused through the glass on the ventral surface of each hind paw, and the latency to reflex withdrawal of the paw from the light beam was measured to the nearest 0.1 second. […]

[2] = test system: COX-2 isozyme compared to the COX-1 isozyme; conditions: dogs, cited from earlier work
[3] = test system: COX-2 isozyme compared to the COX-1 isozyme; conditions: horses; American Journal of Veterinary Research, 2001, 62, 11, 1755; cited from earlier work
[4] = test system: COX-2 isozyme compared to the COX-1 isozyme; conditions: cats; American Journal of Veterinary Research, 2001, 62, 11, 1755; cited from earlier work

Compound	antihyperalgesic action (in words) [1]	selectivity for the COX-2 isozyme compared to the COX-1 isozyme ([2]; American Journal Veterinary Research, 2000, 61, 7, 802) [fold]	selectivity for the COX-2 isozyme compared to the COX-1 isozyme ([2]; American Journal Veterinary Research, 2002, 63, 1, 91) [fold]	selectivity for the COX-2 isozyme compared to the COX-1 isozyme ([2]; American Journal of Veterinary Research, 2001, 62, 11, 1755) [fold]	selectivity for the COX-2 isozyme compared to the COX-1 isozyme ([2]; WO 98/50033) [fold]	selectivity for the COX-2 isozyme compared to the COX-1 isozyme [3] [fold]	selectivity for the COX-2 isozyme compared to the COX-1 isozyme [4] [fold]
CC(C(=O)O)c1ccc2c(c1)[nH]c1ccc(Cl)cc12 (stereo not drawn) [carprofen, 6-chloro-α-methyl-9H-carbazole-2-acetic acid]	antihyperalgesic actions	1.75	16.8	6.5	129	1.6	5.5
NCC1(CC(=O)O)CCCCC1 [gabapentin, 1-(aminomethyl)-cyclohexylacetic acid]	antihyperalgesic actions						
